Measured values as given in BindingDB's records for patent US11339122 (University of Pittsburgh, 2022).

Target: Transient receptor potential cation channel subfamily V member 1 (Homo sapiens, UniProt Q8NER1)
Test: RTX Competition Binding Assay.
Method: Binding studies with [3H]RTX were carried out as follows. The binding assay mixtures were prepared in 1.5 ml centrifuge tubes and consisted of a fixed concentration (approximately 2 nM) of [3H]RTX (37 Ci/mmol specific activity, PerkinElmer Life Sciences), various concentrations of competing ligands, and […] of membranes from induced CHO-hTRPV1 expressing cells (approximately 1-3×10^6 cells) in Dulbecco's phosphate buffered saline (DPBS, with Ca2+ & Mg2+) for a total volume of 350 μl. The assay mix contained bovine serum albumin at a final concentration of 0.25 mg/ml (Cohn fraction V; Sigma-Aldrich, St. Louis, Mo.). In each set of experiments, nonspecific binding were determined in the presence of 200 nM non-radioactive RTX. The binding reaction was initiated by placing the assay mixture in a 37° C. shaking water bath for 60 minutes ([…]). The assay mixture was then chilled on ice for 2-3 min before adding 100 μl of α1-acid glycoprotein (2 mg/ml; Sigma-Aldrich) and mixed thoroughly. The tubes were kept on ice for an additional 10 min. The bound and free ligands were then separated by centrifugation (12,200 rpm for 15 minutes) in a Beckman Coulter centrifuge Allegra 21R. 200 μl of supernatant was collected for determination of free ligand. The remainder was removed by aspiration.

Sequence of Transient receptor potential cation channel subfamily V member 1 (Q8NER1 whole entry): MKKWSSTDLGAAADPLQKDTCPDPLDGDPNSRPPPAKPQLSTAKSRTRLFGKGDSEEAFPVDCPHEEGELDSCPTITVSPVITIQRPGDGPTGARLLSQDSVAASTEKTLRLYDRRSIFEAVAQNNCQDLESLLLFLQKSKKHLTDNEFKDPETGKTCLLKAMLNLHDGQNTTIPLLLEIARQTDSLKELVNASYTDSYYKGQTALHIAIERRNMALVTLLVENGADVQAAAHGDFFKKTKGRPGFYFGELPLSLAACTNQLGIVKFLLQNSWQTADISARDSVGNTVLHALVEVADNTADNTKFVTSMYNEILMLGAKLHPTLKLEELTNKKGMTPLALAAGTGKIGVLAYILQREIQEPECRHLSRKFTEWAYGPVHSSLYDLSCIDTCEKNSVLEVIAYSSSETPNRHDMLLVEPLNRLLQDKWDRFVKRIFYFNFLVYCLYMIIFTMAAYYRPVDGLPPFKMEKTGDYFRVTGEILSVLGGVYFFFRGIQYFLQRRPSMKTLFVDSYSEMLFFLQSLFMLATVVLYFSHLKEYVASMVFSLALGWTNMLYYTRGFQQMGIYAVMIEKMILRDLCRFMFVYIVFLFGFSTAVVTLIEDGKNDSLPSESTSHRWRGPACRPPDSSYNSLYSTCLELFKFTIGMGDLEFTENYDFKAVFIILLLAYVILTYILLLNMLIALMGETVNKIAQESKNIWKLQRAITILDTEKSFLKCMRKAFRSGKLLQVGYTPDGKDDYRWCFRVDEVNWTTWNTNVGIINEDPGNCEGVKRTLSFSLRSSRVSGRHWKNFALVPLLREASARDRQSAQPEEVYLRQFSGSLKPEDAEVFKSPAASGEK

Question: With CCOC(=O)c1ccc(NC(=O)Nc2ccc(F)cc2)cc1 [US11339122, Compound 5b] as the compound, how does the Ki read?
Answer: 2840 nM
